Where no end group is shown, it is not given here.
How the values were obtained:
[1] = test system: Thy 1.2+ thymocytes of the epidermis; test: Thy 1.2+ epidermal cell density after topical application to mouse ear (immunofluorescence); format: in vivo, C57-BL/6 mice; conditions: for Number of Thy 1.2+ cells per mm^2 of epidermis, batch 1 / Number of Thy 1.2+ cells per mm^2 of epidermis, batch 2 / Number of Thy 1.2+ cells per mm^2 of epidermis, batch 3 / Number of Thy 1.2+ cells per mm^2 of epidermis, batch 4 / Number of Thy 1.2+ cells per mm^2 of epidermis, Mean: C 57 BL/6 mice; for Number of Thy 1.2+ cells per mm^2 of epidermis, Mean: 4 batches; for Thy 1.2+ cells % T: relative to PG controls
Method: (§1) I--Experimental Samples--Code: ETF
(§2) In solution in propylene glycol at a concentration of 10^-5 M/ml
(§3) 5 to 7-week-old male C 57-BL/6 mice, which are divided into groups of 4 per cage, and which have free access to water and food and which are subjected to a photoperiod of 12 h of light per 24 hours, are given a topical application of the peptide in propylene glycol (50 μl vol) on the dorsal surface of the ear daily for 5 consecutive days.
(§4) The animals are sacrificed on day 6. The ears are removed, with the dorsal and ventral surfaces being separated.
(§5) The tissues of the dorsal surface are immersed in Na EDTA (0.020 M) at 37° C. for 2 h.
(§6) After incubation, the epidermis is removed in the form of an intact sheet, fixed with acetone and rehydrated in PBS (phosphate buffer).
(§7) The Thy 1-2+ and Ia+ EDC (epidermal dendritic cells) are identified by indirect immunofluorescence double labeling.
(§8) In the case of each epidermal sheet, the number of cells per mm^2 is determined using the peripheral regions of the same surface.
The Thy 1.2+ EDC were identified by indirect immunofluorescence double labeling. The epidermal sheets were fixed with acetone and then rehydrated in PBS.
The tissues were labeled simultaneously, at 4° C. for 16 h, with mouse anti-Thy 1.2+ antibody which was diluted 1:100. The tissue samples were washed three times in PBS for 60 min and then incubated, at 37° C. for 60 min, either with goat antimouse antibody which was coupled to rhodamine and diluted 1:20, or with goat antirabbit antibody which was coupled to fluorescein (fluorescine and diluted 1:20 in PBS. The tissues were then washed in PBS before being mounted as previously described.
(§9) In the case of each epidermal sheet, the number of Ia+ Langerhans cells or Thy 1.2+ EDCs per square millimeter was determined by means of immunofluorescence, using a confocal Zeiss microscope which was equipped for this purpose, in four peripheral areas of the same surface. At least four animals were studied in each of the groups. The density of Ia+ Langerhans cells and Thy 1.2+ EDCs is shown for each measurement.

Ia+ Langerhans cells = test: Ia+ Langerhans cell density after topical application to mouse ear; format: in vivo, C57-BL/6 mice; conditions: for Number of Ia+ cells per mm^2 of epidermis, batch 1 / Number of Ia+ cells per mm^2 of epidermis, batch 2 / Number of Ia+ cells per mm^2 of epidermis, batch 3 / Number of Ia+ cells per mm^2 of epidermis, batch 4 / Number of Ia+ cells per mm^2 of epidermis, Mean: C 57 BL/6 mice; for Number of Ia+ cells per mm^2 of epidermis, Mean: 4 batches; for Ia+ cells %: relative to PG controls
Method: as §1, §2, §3, §4, §5, §6, §7, §8
The EDC (epidermal dendritic cells) carrying the Ia+ marker were identified using an anti-Ia+ monoclonal antibody.
The epidermal sheets are fixed with acetone and then incubated, at 37° C. for 1 h, in the presence of the anti-Ia+ monoclonal antibody, which has been labeled by the indirect immunoperoxidase method (Kit).
After having been incubated at 37° C. for 10 minutes with a solution of aminoethylcarbazole, the preparation is washed with PBS.
as §9

Substance	Number of Thy 1.2+ cells per mm^2 of epidermis, batch 1 ([1]; dose 0.10 Nanog.)	Number of Thy 1.2+ cells per mm^2 of epidermis, batch 2 ([1]; dose 0.10 Nanog.)	Number of Thy 1.2+ cells per mm^2 of epidermis, batch 3 ([1]; dose 0.10 Nanog.)	Number of Thy 1.2+ cells per mm^2 of epidermis, batch 4 ([1]; dose 0.10 Nanog.)	Number of Thy 1.2+ cells per mm^2 of epidermis, Mean ([1]; dose 0.10 Nanog.)	Thy 1.2+ cells % T ([1]; dose 0.10 Nanog.)	Number of Thy 1.2+ cells per mm^2 of epidermis, batch 1 ([1]; dose 0.50 Nanog.)	Number of Thy 1.2+ cells per mm^2 of epidermis, batch 2 ([1]; dose 0.50 Nanog.)	Number of Thy 1.2+ cells per mm^2 of epidermis, batch 3 ([1]; dose 0.50 Nanog.)	Number of Thy 1.2+ cells per mm^2 of epidermis, batch 4 ([1]; dose 0.50 Nanog.)	Number of Thy 1.2+ cells per mm^2 of epidermis, Mean ([1]; dose 0.50 Nanog.)	Thy 1.2+ cells % T ([1]; dose 0.50 Nanog.)	Number of Thy 1.2+ cells per mm^2 of epidermis, batch 1 ([1]; dose 1.00 Nanog.)	Number of Thy 1.2+ cells per mm^2 of epidermis, batch 2 ([1]; dose 1.00 Nanog.)	Number of Thy 1.2+ cells per mm^2 of epidermis, batch 3 ([1]; dose 1.00 Nanog.)	Number of Thy 1.2+ cells per mm^2 of epidermis, batch 4 ([1]; dose 1.00 Nanog.)	Number of Thy 1.2+ cells per mm^2 of epidermis, Mean ([1]; dose 1.00 Nanog.)	Thy 1.2+ cells % T ([1]; dose 1.00 Nanog.)	Number of Ia+ cells per mm^2 of epidermis, batch 1 (Ia+ Langerhans cells; dose 0.10 Nanog.)	Number of Ia+ cells per mm^2 of epidermis, batch 2 (Ia+ Langerhans cells; dose 0.10 Nanog.)	other results
Adipoyl-Ala-Lys-Ser-Gln-Gly-Gly-Ser-Asn-NH2 (AKSQGGSN-NH2; not fully specified (N-terminus)) [ETF-III, A of the tested sample not restated]	168 cells per mm^2	165 cells per mm^2	180 cells per mm^2	176 cells per mm^2	172.25 cells per mm^2	95%	190 cells per mm^2	190 cells per mm^2	205 cells per mm^2	200 cells per mm^2	196.25 cells per mm^2	122%	200 cells per mm^2	220 cells per mm^2	216 cells per mm^2	210 cells per mm^2	211.50 cells per mm^2	140%	376 cells per mm^2	382 cells per mm^2	Number of Ia+ cells per mm^2 of epidermis, batch 3 (Ia+ Langerhans cells; dose 0.10 Nanog.): 387 cells per mm^2; Number of Ia+ cells per mm^2 of epidermis, batch 4 (Ia+ Langerhans cells; dose 0.10 Nanog.): 399 cells per mm^2; Number of Ia+ cells per mm^2 of epidermis, Mean (Ia+ Langerhans cells; dose 0.10 Nanog.): 386.00 cells per mm^2; Ia+ cells % (Ia+ Langerhans cells; dose 0.10 Nanog.): 277%; Number of Ia+ cells per mm^2 of epidermis, batch 1 (Ia+ Langerhans cells; dose 0.50 Nanog.): 380 cells per mm^2; Number of Ia+ cells per mm^2 of epidermis, batch 2 (Ia+ Langerhans cells; dose 0.50 Nanog.): 388 cells per mm^2; Number of Ia+ cells per mm^2 of epidermis, batch 3 (Ia+ Langerhans cells; dose 0.50 Nanog.): 299 cells per mm^2; Number of Ia+ cells per mm^2 of epidermis, batch 4 (Ia+ Langerhans cells; dose 0.50 Nanog.): 388 cells per mm^2; Number of Ia+ cells per mm^2 of epidermis, Mean (Ia+ Langerhans cells; dose 0.50 Nanog.): 363.75 cells per mm^2; Ia+ cells % (Ia+ Langerhans cells; dose 0.50 Nanog.): 255%; Number of Ia+ cells per mm^2 of epidermis, batch 1 (Ia+ Langerhans cells; dose 1.00 Nanog.): 305 cells per mm^2; Number of Ia+ cells per mm^2 of epidermis, batch 2 (Ia+ Langerhans cells; dose 1.00 Nanog.): 400 cells per mm^2; Number of Ia+ cells per mm^2 of epidermis, batch 3 (Ia+ Langerhans cells; dose 1.00 Nanog.): 398 cells per mm^2; Number of Ia+ cells per mm^2 of epidermis, batch 4 (Ia+ Langerhans cells; dose 1.00 Nanog.): 410 cells per mm^2; Number of Ia+ cells per mm^2 of epidermis, Mean (Ia+ Langerhans cells; dose 1.00 Nanog.): 378.25 cells per mm^2; Ia+ cells % (Ia+ Langerhans cells; dose 1.00 Nanog.): 269%
A-Arg-Lys-Asp-Val-Tyr-NH2 (RKDVY; not fully specified (N-terminus, C-terminus)) [ETF-XV, A not specified for the tested sample; b149 names acetic acid-Arg-Lys-Asp-Val-Tyr-NH2]	160 cells per mm^2	158 cells per mm^2	160 cells per mm^2	170 cells per mm^2	162.00 cells per mm^2	84%	176 cells per mm^2	168 cells per mm^2	170 cells per mm^2	186 cells per mm^2	175.00 cells per mm^2	98%	198 cells per mm^2	180 cells per mm^2	188 cells per mm^2	199 cells per mm^2	191.25 cells per mm^2	117%	315 cells per mm^2	326 cells per mm^2	Number of Ia+ cells per mm^2 of epidermis, batch 3 (Ia+ Langerhans cells; dose 0.10 Nanog.): 320 cells per mm^2; Number of Ia+ cells per mm^2 of epidermis, batch 4 (Ia+ Langerhans cells; dose 0.10 Nanog.): 330 cells per mm^2; Number of Ia+ cells per mm^2 of epidermis, Mean (Ia+ Langerhans cells; dose 0.10 Nanog.): 322.75 cells per mm^2; Ia+ cells % (Ia+ Langerhans cells; dose 0.10 Nanog.): 215%; Number of Ia+ cells per mm^2 of epidermis, batch 1 (Ia+ Langerhans cells; dose 0.50 Nanog.): 305 cells per mm^2; Number of Ia+ cells per mm^2 of epidermis, batch 2 (Ia+ Langerhans cells; dose 0.50 Nanog.): 345 cells per mm^2; Number of Ia+ cells per mm^2 of epidermis, batch 3 (Ia+ Langerhans cells; dose 0.50 Nanog.): 330 cells per mm^2; Number of Ia+ cells per mm^2 of epidermis, batch 4 (Ia+ Langerhans cells; dose 0.50 Nanog.): 345 cells per mm^2; Number of Ia+ cells per mm^2 of epidermis, Mean (Ia+ Langerhans cells; dose 0.50 Nanog.): 331.25 cells per mm^2; Ia+ cells % (Ia+ Langerhans cells; dose 0.50 Nanog.): 223%; Number of Ia+ cells per mm^2 of epidermis, batch 1 (Ia+ Langerhans cells; dose 1.00 Nanog.): 348 cells per mm^2; Number of Ia+ cells per mm^2 of epidermis, batch 2 (Ia+ Langerhans cells; dose 1.00 Nanog.): 360 cells per mm^2; Number of Ia+ cells per mm^2 of epidermis, batch 3 (Ia+ Langerhans cells; dose 1.00 Nanog.): 348 cells per mm^2; Number of Ia+ cells per mm^2 of epidermis, batch 4 (Ia+ Langerhans cells; dose 1.00 Nanog.): 350 cells per mm^2; Number of Ia+ cells per mm^2 of epidermis, Mean (Ia+ Langerhans cells; dose 1.00 Nanog.): 351.50 cells per mm^2; Ia+ cells % (Ia+ Langerhans cells; dose 1.00 Nanog.): 243%

Source: US6211155A, “Peptide conjugates derived from thymic hormones, their use as a medicament and compositions containing them” (Institut European de Biologie Cellulaire, priority 1995, dated 2001)
